Reference: a compilation of properties of binary mixtures (doi:10.1007/s10953-021-01067-6)

Test: xn = mol fraction of the nth substance listed
Conditions: 101.3 kPa

CCCCCC[NH2+]CCN.O=S(=O)([N-]S(=O)(=O)C(F)(F)F)C(F)(F)F + O
Conditions	electrical conductivity [S/m]	viscosity [mPa·s]
303.15 K, x1 = 0.401	0.251	51.4
303.15 K, x1 = 0.4387	0.209	66.6
303.15 K, x1 = 0.5021	0.135	104
303.15 K, x1 = 0.5762	0.066	117
303.15 K, x1 = 0.6827	0.0619	168
303.15 K, x1 = 0.8153	0.0416	226
303.15 K, x1 = 0.8939	0.0284	260
308.15 K, x1 = 0.401	0.324	40.1
308.15 K, x1 = 0.4387	0.267	51
308.15 K, x1 = 0.5762	0.0972	86.6
308.15 K, x1 = 0.6827	0.085	131
308.15 K, x1 = 0.8153	0.0537	160
308.15 K, x1 = 0.8939	0.0432	179
313.15 K, x1 = 0.401	0.396	31.8
313.15 K, x1 = 0.4387	0.328	39.8
313.15 K, x1 = 0.5021	0.221	59.1
313.15 K, x1 = 0.5762	0.138	65.5
313.15 K, x1 = 0.6827	0.11	97.4
313.15 K, x1 = 0.8153	0.0733	118
313.15 K, x1 = 0.8939	0.056	131
318.15 K, x1 = 0.401	0.485	25.7
318.15 K, x1 = 0.4387	0.409	31.6
318.15 K, x1 = 0.5021	0.278	45.9
318.15 K, x1 = 0.6827	0.144	74.1
318.15 K, x1 = 0.8153	0.0987	88.2
318.15 K, x1 = 0.8939	0.075	95.9
323.15 K, x1 = 0.4387	0.502	25.6
323.15 K, x1 = 0.5021	0.34	36.3
323.15 K, x1 = 0.5762	0.232	39.6
323.15 K, x1 = 0.6827	0.184	57.4
323.15 K, x1 = 0.8153	0.13	65.4
323.15 K, x1 = 0.8939	0.101	72.1
328.15 K, x1 = 0.401	0.71	17.7
328.15 K, x1 = 0.4387	0.603	20.9
328.15 K, x1 = 0.5762	0.288	31.6
328.15 K, x1 = 0.8153	0.166	50.6
328.15 K, x1 = 0.8939	0.13	55.6
333.15 K, x1 = 0.401	0.838	15
333.15 K, x1 = 0.4387	0.727	17.4
333.15 K, x1 = 0.5021	0.505	23.8
333.15 K, x1 = 0.5762	0.372	25.7
333.15 K, x1 = 0.6827	0.293	35.8
333.15 K, x1 = 0.8153	0.21	39.8
333.15 K, x1 = 0.8939	0.169	43.6
338.15 K, x1 = 0.401	0.973	12.8
338.15 K, x1 = 0.4387	0.858	14.7
338.15 K, x1 = 0.5762	0.441	21.2
338.15 K, x1 = 0.6827	0.359	29.2
338.15 K, x1 = 0.8153	0.263	31.8
338.15 K, x1 = 0.8939	0.203	36.5
343.15 K, x1 = 0.401	1.13	11.1
343.15 K, x1 = 0.4387	1.01	11.9
343.15 K, x1 = 0.5021	0.705	16.5
343.15 K, x1 = 0.5762	0.521	17.7
343.15 K, x1 = 0.8939	0.255	28.2
348.15 K, x1 = 0.4387	1.12	10.3
348.15 K, x1 = 0.5021	0.808	14
348.15 K, x1 = 0.6827	0.503	20.5
348.15 K, x1 = 0.8153	0.399	21.4
348.15 K, x1 = 0.8939	0.31	24.4
353.15 K, x1 = 0.401	1.47	8.8
353.15 K, x1 = 0.4387	1.34	9
353.15 K, x1 = 0.5021	0.908	12
353.15 K, x1 = 0.6827	0.601	16.9
353.15 K, x1 = 0.8153	0.37	17
353.15 K, x1 = 0.8939	–	20.7
